The values below come from patent publication US20250375450A1, “SMARCA2/4 INHIBITION AS A STRATEGY TO TREAT TUMORS THAT HARBOR ABERRANT BAF ASSEMBLIES” (BOARD OF REGENTS, THE UNIVERSITY OF TEXAS SYSTEM, priority 2022, published 2025).

Assay [1] relates to FLI1 expression in ES7 cells. Description: Immunoblot of oncogenic transcription factor levels. Type of assay: cell-based. Particulars: 4 and 12 hrs of treatment. The text has this: (§1) FIG. 12A-D show representative data illustrating that the assembly of BAF complex is perturbed by AT-301 inhibitor without perturbing oncogenic fusion protein levels. Referring to FIG. 12A and FIG. 12B, immunoblots of RH41 (FIG. 12A) and ES7 (FIG. 12B) cells after 4 and 12 hrs of treatment with AT-301 or DMSO. FOXO1 and FLI1 expression remains unchanged upon AT-301 treatment. Referring to FIG. 12C and FIG. 12D, gel filtration chromatography of ES3 (FIG. 12C) and RH41 (FIG. 12D) cell nuclear lysates after BAF-X-1 treatment are shown. […]
(§2) Next, whether the levels of oncogenic transcription factors in RH41 and ES7 cells change upon treatment with AT-301 was tested. Harvested cells were lysed in NP-40 lysis buffer (Thermo Scientific, J60766) supplemented with protease and phosphatase inhibitor (Halt Protease and phosphatase inhibitor cocktail (Thermo Scientific). Total protein was quantified using Bradford assay (Biorad), and 20 μg of it was denatured and separated on pre-cast tris-acetate or tris-glycine gels (Invitrogen). The protein was then transferred to nitrocellulose membranes (Cytiva) and subsequently probed using primary and secondary antibodies. The signal was detected using Clarity and Clarity Max ECL substrates (Biorad) and imaged on Biorad ChemiDoc).
Background: Immunoblotting shows a protein as a band on a membrane.

The test system of assay [2] is FOXO1 expression in RH41 cells. The description is as above. Particulars: 4 and 12 hrs of treatment. Type of assay: cell-based.
Text: as §1, §2

A further assay deals with T1, SMARCA2 (Homo sapiens, UniProt P51531).
T1 construct: The SMARCA2-1 gene (amino acids 437-1493) encompassing all domains; made in house; host or cells: expiSF9 insect cells (baculovirus, pFASTBac1)
Description: ATPase activity of SMARCA2 on different DNA/chromatin substrates (enzyme-coupled phosphate release assay). Type of assay: biochemical. Particulars: 5 μM AT-301; 147 bp nucleosomal DNA, 29 bp duplex DNA, NCP. The text has this: FIG. 9A-C show representative data illustrating that AT-301 attenuates the ATPase activity of SMARCA2 in different DNA/chromatin substrates.
In brief, the disclosed ATPase assay is based on the inorganic phosphate (Pi) release from the enzymatic reaction, wherein the substrate 2-amino-6-mercapto-7-methylpurine ribose (MESG) is converted by purine phosphorylase (PNP) to ribose 1-phosphate and 2-amino-6-mercapto-7-methylpurine. This conversion changes the spectrophotometric shift of MSEG absorbance from 330 nm to 360 nm (FIG. 1C and FIG. 1D).
SMARCA2 can interact with nucleosomal, extra nucleosomal DNA, and a DNA wrapped around the histone octamer. These substrates were prepared, and the ATPase activity of SMARCA2 on these substrates were evaluated in the presence and absence of AT-301. Specifically, as shown in FIG. 9A-C, mononucleosome core particles (NCP) were reconstituted from purified histone octamer and 147 bp widom nucleosomal DNA. An electromobility shift assay (EMSA) was used to monitor the direct binding of SMARCA2 to NCP. […] The ATPase activity of SMARCA2 was also evaluated on alternative substrates (a 29-mer duplex DNA, 147 bp nucleosomal DNA, and reconstituted NCP).

The test system of a further assay is D556. Description: Cell proliferation assay and IC50 measurement (PrestoBlue). Type of assay: cell-based. Particulars: PrestoBlue cell viability. As to the method:
(§3) FIG. 10A-C show representative data illustrating that AT-301 kills Ewing's, RMS, GBM, AML, and other cancer cells. Cell lines were treated with serial dilutions (2×) of AT-301, and IC50 values of each cell line were determined using PrestoBlue dye for cell viability following manufacturer's protocol (Invitrogen, A13261). See also Table 3.
(§4) DAOY, D556 cells: EMEM, 10% FBS, Penicillin (100 units/mL) and streptomycin (100 μg/mL) in the presence of 5% CO2.
(§5) Proliferation of adherent cells was determined on the IncuCyte live-cell imaging system (Essen BioScience). Cells were seeded on clear bottom 96 well plates at a seeding density of 2000 cells/well. Cells were allowed to attach overnight after which the medium was replaced with fresh medium containing serial dilutions (2×) of the compound or DMSO control. Percent confluence was calculated by the IncuCyte software from four different images per well from at least three replicate wells. For non-adherent cells, the 96-well plates were coated with poly-L-lysine before seeding to facilitate cell adhesion. At the end of the assay, dose-dependent cell viability was determined by staining the cells with PrestoBlue (Invitrogen, A13261) as per manufacturer's instructions and IC50 was calculated (FIG. 10).

In the next assay the test system is DAOY. The description is as above. Particulars: Homo sapiens, PrestoBlue cell viability. The format is cell-based. As to the method:
as §3, §4, §5

A further assay deals with ovarian cancer cells. Description: Growth/killing of ovarian cancer cells. Type of assay: cell-based. Particulars: dose-dependent. On the procedure:
as §5
Referring to FIG. 10A, AT-301 kills a variety of cancer cells (brain tumors, rhabdomyosarcoma, nonsmall cell lung cancer, leukemia, and Ewing's Sarcoma. We also tested whether AT-301 can kill cells representing gynecological cancers (ovarian and endometrial cancer). As shown in FIG. 10B-C, AT-301 kills a variety of ovarian and endometrial cancer cells.

The test system of another assay is Ewing Sarcoma cell lines. Description: Growth of Ewing Sarcoma cell lines, live cell imaging (Incucyte S3) confluency. The format is cell-based. On the procedure: Briefly, human SMARCA2 was purified, and a high-throughput screen (HTS) of 40,000 compounds was conducted. […] In brief, cells were grown in RPMI media supplemented with 10% Fetal bovine serum (FBS), 1× penicillin, and streptomycin antibiotics. Cells were placed in an incubator with 5% C02 and 50% humidity. When cells reached 90% confluency, cells were harvested, washed twice in 1×PBS, counted using trypan blue exclusion method. Then cells were seeded in 96-well plates (duplicates, n=2) at the density of 20,000 cells per well. Allowed them to attach to the bottom of the well for 1 to 2 hrs and treated with different concentration of AT-301 compound starting at highest concentration of 10 micromolar to serial dilution of the compound to the lowest concentration of 0.039 micromolar. Cells treated with only DMSO were also included as negative control. Cells were monitored for 72 hrs. by live cell imaging method (Incucyte S3) taking images every two hours. The confluency was determined and plotted against time (hours) by using Prism software.

“Also recorded” adds a separate entry of the source.

T1 sequence (P51531 437-1493): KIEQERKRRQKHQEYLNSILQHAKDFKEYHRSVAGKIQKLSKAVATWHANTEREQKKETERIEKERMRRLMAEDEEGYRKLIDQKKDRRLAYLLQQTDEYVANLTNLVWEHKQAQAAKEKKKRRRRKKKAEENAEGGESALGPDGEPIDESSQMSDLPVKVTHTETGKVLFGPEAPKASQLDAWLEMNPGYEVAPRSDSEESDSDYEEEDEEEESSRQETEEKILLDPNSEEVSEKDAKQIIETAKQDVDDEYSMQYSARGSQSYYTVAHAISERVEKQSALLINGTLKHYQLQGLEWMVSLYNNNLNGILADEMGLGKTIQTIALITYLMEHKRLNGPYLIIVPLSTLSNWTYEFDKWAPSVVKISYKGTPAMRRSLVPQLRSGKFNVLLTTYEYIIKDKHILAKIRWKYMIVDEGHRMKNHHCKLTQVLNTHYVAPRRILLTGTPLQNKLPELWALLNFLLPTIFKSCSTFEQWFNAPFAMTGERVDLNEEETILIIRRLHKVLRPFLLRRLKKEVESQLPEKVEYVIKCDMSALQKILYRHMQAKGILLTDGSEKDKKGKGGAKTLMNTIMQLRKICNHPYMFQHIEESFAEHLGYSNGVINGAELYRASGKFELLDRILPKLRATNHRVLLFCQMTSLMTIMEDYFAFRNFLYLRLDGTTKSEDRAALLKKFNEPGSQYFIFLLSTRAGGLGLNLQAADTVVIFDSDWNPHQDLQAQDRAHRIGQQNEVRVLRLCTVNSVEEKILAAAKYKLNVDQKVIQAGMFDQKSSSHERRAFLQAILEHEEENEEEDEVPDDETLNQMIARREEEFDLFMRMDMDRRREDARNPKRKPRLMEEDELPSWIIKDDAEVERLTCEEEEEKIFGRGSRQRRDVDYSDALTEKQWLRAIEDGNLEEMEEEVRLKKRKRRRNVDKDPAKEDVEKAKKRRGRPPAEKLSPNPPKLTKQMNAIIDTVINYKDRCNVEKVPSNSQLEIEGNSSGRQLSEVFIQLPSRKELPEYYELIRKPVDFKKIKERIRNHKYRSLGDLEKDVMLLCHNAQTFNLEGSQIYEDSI

For orientation: IC50 means the concentration needed to halve the response being measured. Low readings indicate inhibition by little substance, high ones a need for much substance. In the case of `Clc1ccc(CNc2nc(NC3CCCC3)nc3ccccc23)cc1Cl` [AT-301, N^2-cyclopentyl-N^4-(3,4-dichlorobenzyl)quinazoline-2,4-diamine], the “Expression of oncogenic transcription factor (FLI1)” value in assay [1] is listed as “does not alter the expression”. The “Expression of oncogenic transcription factor (FOXO1)” value in assay [2] was “does not alter the expression”. Also, the “ATPase activity of SMARCA2 on different substrates” value at SMARCA2 is “uniformly reduced; also recorded: significantly attenuated”. Moreover, the IC50 is 3.02 µM with D556; 4.19 µM in the assay with DAOY; approximately 5 µM in the assay with Ewing Sarcoma cell lines (8 different Ewing Sarcoma cell lines, 72 hrs live cell imaging). Besides, the “Growth/killing of ovarian cancer cells” value in the assay on ovarian cancer cells is reported as “kills; also recorded: inhibits the growth”. In addition, in the assay on Ewing Sarcoma cell lines (live cell imaging, confluency), the “Growth of Ewing Sarcoma cell lines” value was “attenuate the growth; also recorded: strongly attenuated the growth”.
